Read-outs that look alike come from different tables or passages of the source.
Target: Human O-GlcNAcase (His-Tagged hOGA) (Homo sapiens (Human), UniProt O60502)
Test: Human O-GlcNAcase enzyme inhibition assay (FL-GlcNAc fluorescence)
Type: biochemical
Conditions: His-Tagged hOGA 20 nM, FL-GlcNAc 10 μM, 60 min at room temperature, pH 6.5
Method: Then, 20 nM of His-Tagged hOGA and 10 μM of FL-GlcNAc (Fluorescein mono-beta-D-(2-deoxy-2-N-acetyl) glucopyranoside; Marker Gene Technologies Inc, M1485) were added to the 384-well plate for a final volume of 20 μl.

Human O-GlcNAcase (His-Tagged hOGA), sequence (O60502 whole entry): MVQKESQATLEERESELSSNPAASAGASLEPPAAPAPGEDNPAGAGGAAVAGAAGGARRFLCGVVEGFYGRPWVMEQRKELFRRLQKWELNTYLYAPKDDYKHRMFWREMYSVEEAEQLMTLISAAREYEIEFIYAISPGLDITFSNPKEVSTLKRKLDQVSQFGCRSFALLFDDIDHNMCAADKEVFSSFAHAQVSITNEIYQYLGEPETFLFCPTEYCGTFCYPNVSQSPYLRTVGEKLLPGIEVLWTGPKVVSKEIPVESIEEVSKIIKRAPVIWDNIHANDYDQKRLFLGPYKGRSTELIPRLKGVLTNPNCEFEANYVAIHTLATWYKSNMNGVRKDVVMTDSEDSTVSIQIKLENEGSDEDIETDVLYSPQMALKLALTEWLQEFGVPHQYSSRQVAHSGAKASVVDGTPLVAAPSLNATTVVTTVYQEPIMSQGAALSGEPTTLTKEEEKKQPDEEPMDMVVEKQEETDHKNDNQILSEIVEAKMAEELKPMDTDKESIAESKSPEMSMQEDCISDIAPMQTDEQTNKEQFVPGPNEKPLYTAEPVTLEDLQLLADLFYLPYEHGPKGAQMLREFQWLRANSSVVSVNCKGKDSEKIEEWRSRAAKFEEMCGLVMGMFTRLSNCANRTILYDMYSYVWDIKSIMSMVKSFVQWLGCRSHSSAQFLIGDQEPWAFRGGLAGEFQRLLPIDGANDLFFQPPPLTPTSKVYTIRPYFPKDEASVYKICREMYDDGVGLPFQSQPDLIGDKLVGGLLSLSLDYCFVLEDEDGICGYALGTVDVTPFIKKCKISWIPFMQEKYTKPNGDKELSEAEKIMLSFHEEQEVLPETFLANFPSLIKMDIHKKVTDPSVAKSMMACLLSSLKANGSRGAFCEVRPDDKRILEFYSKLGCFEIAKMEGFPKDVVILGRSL

Q: For `CC(c1ccc2c(c1)OCC2)N1CCc2nn(-c3ccccc3)cc2C1` (single isomer, unassigned) [Example 12], which IC50 (read-out: Enzymatic OGA IC50) is on record?
A: Its IC50 is 1e-06 to 1e-05 M.

Q: Which IC50 (read-out: Enzymatic OGA IC50) does the source give for `CC(=O)Nc1ncc2c(n1)CCN(C(C)c1ccc3c(c1)OCO3)C2` (racemic) [Example 1, N-(6-(1-(benzo[d][1,3]dioxol-5-yl)ethyl)-5,6,7,8-tetrahydropyrido[4,3-d]pyrimidin-2-yl)acetamide] here?
A: The IC50 was 1e-06 to 1e-05 M.

Q: How did the IC50 (read-out: Enzymatic OGA IC50) turn out when “5-(1-(2,3-dihydrobenzofuran-6-yl)ethyl)-1-(pyridin-2-yl)-4,5,6,7-tetrahydro-1H-pyrazolo[4,3-c]pyridine [Example 9]” was run?
A: The IC50 was 5e-08 to 2e-07 M.

Q: For `CC(c1ccc2c(c1)OCC2)N1CCc2nn(-c3ccc(F)cc3)cc2C1` (racemic) [Example 6, 5-(1-(2,3-dihydrobenzofuran-6-yl)ethyl)-2-(4-fluorophenyl)-4,5,6,7-tetrahydro-2H-pyrazolo[4,3-c]pyridine], which IC50 (read-out: Enzymatic OGA IC50) is on record?
A: Its IC50 is 5e-08 to 2e-07 M.

Q: `CC(c1ccc2c(c1)OCC2)N1CCn2nc(Nc3ccc(C#N)cn3)nc2C1` (racemic) [Example 19, 6-((7-(1-(2,3-dihydrobenzofuran-6-yl)ethyl)-5,6,7,8-tetrahydro-[1,2,4]triazolo[1,5-a]pyrazin-2-yl)amino)nicotinonitrile] was tested. Which IC50 (read-out: Enzymatic OGA IC50) did it give?
A: Its IC50 is 1e-06 to 1e-05 M.

Q: `CC(c1ccc2c(c1)OCO2)N1CCc2ccccc2C1` (racemic) [Example 2, 2-(1-(benzo[d][1,3]dioxol-5-yl)ethyl)-1,2,3,4-tetrahydroisoquinoline] was tested. Which IC50 (read-out: Enzymatic OGA IC50) did it give?
A: Its IC50 is 2e-07 to 1e-06 M.

Q: With `CC(c1ccc2c(c1)OCC2)N1CCc2n[nH]cc2C1` (racemic) [Example 4, 5-(1-(2,3-dihydrobenzofuran-6-yl)ethyl)-4,5,6,7-tetrahydro-2H-pyrazolo[4,3-c]pyridine] as the molecule, how does the IC50 (read-out: Enzymatic OGA IC50) read?
A: The IC50 was 5e-08 to 2e-07 M.

Q: For `CC(=O)Nc1nc2c(s1)CN(C(C)c1ccc3c(c1)OCO3)CC2` (racemic) [Example 3, N-(5-(1-(benzo[d][1,3]dioxol-5-yl)ethyl)-4,5,6,7-tetrahydrothiazolo[5,4-c]pyridin-2-yl)acetamide], which IC50 (Enzymatic OGA IC50 (M)) is on record?
A: The IC50 was 2e-07 to 1e-06 M.

Q: How did the IC50 (read-out: Enzymatic OGA IC50) turn out when `CC(c1ccc2c(c1)OCC2)N1CCn2nc(-c3cccnc3)nc2C1` (racemic) [Example 18, 7-(1-(2,3-dihydrobenzofuran-6-yl)ethyl)-2-(pyridin-3-yl)-5,6,7,8-tetrahydro-[1,2,4]triazolo[1,5-a]pyrazine] was run?
A: Its IC50 is 1e-06 to 1e-05 M.

Q: Which IC50 (read-out: Enzymatic OGA IC50) does the source give for `CC(c1ccc2c(c1)OCC2)N1CCc2c(cnn2-c2ccccc2)C1` (racemic) [Example 7, 5-(1-(2,3-dihydrobenzofuran-6-yl)ethyl)-1-phenyl-4,5,6,7-tetrahydro-1H-pyrazolo[4,3-c]pyridine] here?
A: Its IC50 is 5e-08 to 2e-07 M.

Q: With `CC(c1ccc2c(c1)OCC2)N1CCc2nn(-c3ccccc3)cc2C1` (racemic) [Example 8, 5-(1-(2,3-dihydrobenzofuran-6-yl)ethyl)-2-phenyl-4,5,6,7-tetrahydro-2H-pyrazolo[4,3-c]pyridine] as the molecule, how does the IC50 (read-out: Enzymatic OGA IC50) read?
A: The IC50 was 5e-08 to 2e-07 M.

Q: For `CC(c1ccc2c(c1)OCC2)N1CCc2c(cnn2-c2ccc(F)cc2)C1` (racemic) [Example 5, 5-(1-(2,3-dihydrobenzofuran-6-yl)ethyl)-1-(4-fluorophenyl)-4,5,6,7-tetrahydro-1H-pyrazolo[4,3-c]pyridine], which IC50 (read-out: Enzymatic OGA IC50) is on record?
A: The IC50 was 5e-08 to 2e-07 M.

Q: For `CC(c1ccc2c(c1)OCC2)N1CCc2nc(-c3ccc(F)cc3)sc2C1` (racemic) [Example 11, 5-(1-(2,3-dihydrobenzofuran-6-yl)ethyl)-2-(4-fluorophenyl)-4,5,6,7-tetrahydrothiazolo[5,4-c]pyridine], which IC50 (read-out: Enzymatic OGA IC50) is on record?
A: Its IC50 is 2e-07 to 1e-06 M.

Q: Which IC50 (read-out: Enzymatic OGA IC50) does the source give for `CC(c1ccc2c(c1)OCC2)N1CCc2nn(C3CCOCC3)cc2C1` (centres unmarked) [Example 15, 5-(1-(2,3-dihydrobenzofuran-6-yl)ethyl)-1-(tetrahydro-2H-pyran-4-yl)-4,5,6,7-tetrahydro-1H-pyrazolo[4,3-c]pyridine or 5-(1-(2,3-dihydrobenzofuran-6-yl)ethyl)-2-(tetrahydro-2H-pyran-4-yl)-4,5,6,7-tetrahydro-2H-pyrazolo[4,3-c]pyridine] here?
A: Its IC50 is 1e-06 to 1e-05 M.

Q: With `CC(c1ccc2c(c1)OCC2)N1CCc2nn(-c3ccccc3)cc2C1` (single isomer, unassigned) [Example 13] as the molecule, how does the IC50 (read-out: Enzymatic OGA IC50) read?
A: The IC50 was 5e-08 to 2e-07 M.

Q: Which IC50 (Enzymatic OGA IC50 (M)) does the source give for `CC(c1ccc2c(c1)OCC2)N1CCn2nc(-c3ccc(S(C)(=O)=O)cc3)nc2C1` (racemic) [Example 17] here?
A: The IC50 was 1e-06 to 1e-05 M.

Q: With `CC(c1ccc2c(c1)OCC2)N1CCc2c(cnn2Cc2ncccn2)C1` (racemic) [Example 21, 5-(1-(2,3-dihydrobenzofuran-6-yl)ethyl)-1-(pyrimidin-2-ylmethyl)-4,5,6,7-tetrahydro-1H-pyrazolo[4,3-c]pyridine] as the molecule, how does the IC50 (read-out: Enzymatic OGA IC50) read?
A: The IC50 was 2e-07 to 1e-06 M.

Q: How did the IC50 (read-out: Enzymatic OGA IC50) turn out when `CC(c1ccc2c(c1)OCC2)N1CCc2c(cnn2-c2cncnc2)C1` (racemic) [Example 14, 5-(1-(2,3-dihydrobenzofuran-6-yl)ethyl)-1-(pyrimidin-5-yl)-4,5,6,7-tetrahydro-1H-pyrazolo[4,3-c]pyridine] was run?
A: The IC50 was 2e-07 to 1e-06 M.

Q: Which IC50 (read-out: Enzymatic OGA IC50) does the source give for “5-(1-(2,3-dihydrobenzofuran-6-yl)ethyl)-2-(pyridin-2-yl)-4,5,6,7-tetrahydro-2H-pyrazolo[4,3-c]pyridine [Example 10]” here?
A: Its IC50 is 5e-08 to 2e-07 M.

Q: With `CC(c1ccc2c(c1)OCC2)N1CCc2nn(Cc3ncccn3)cc2C1` (racemic) [Example 20, 5-(1-(2,3-dihydrobenzofuran-6-yl)ethyl)-2-(pyrimidin-2-ylmethyl)-4,5,6,7-tetrahydro-2H-pyrazolo[4,3-c]pyridine] as the molecule, how does the IC50 (read-out: Enzymatic OGA IC50) read?
A: Its IC50 is 2e-07 to 1e-06 M.
